# Results: ChEMBL document CHEMBL2321667, “Imidazopyridine-Based Fatty Acid Synthase Inhibitors That Show Anti-HCV Activity and in Vivo Target Modulation” (ACS Med Chem Lett, 2013)
# How the values were obtained:
# [1] = tested on: Hepatitis C virus; experiment: microbe, parasite or virus in culture; details: genotype 1b, Huh-7, 72 h
# [2] = in vitro; details: human, huh-7
# [3] = biological target: Fatty acid synthase (Rattus norvegicus, UniProt P12785)
# [4] = in vitro; details: dog, MDCK
# [5] = in vitro; details: plasma
# Chain of Fatty acid synthase (P12785 whole entry): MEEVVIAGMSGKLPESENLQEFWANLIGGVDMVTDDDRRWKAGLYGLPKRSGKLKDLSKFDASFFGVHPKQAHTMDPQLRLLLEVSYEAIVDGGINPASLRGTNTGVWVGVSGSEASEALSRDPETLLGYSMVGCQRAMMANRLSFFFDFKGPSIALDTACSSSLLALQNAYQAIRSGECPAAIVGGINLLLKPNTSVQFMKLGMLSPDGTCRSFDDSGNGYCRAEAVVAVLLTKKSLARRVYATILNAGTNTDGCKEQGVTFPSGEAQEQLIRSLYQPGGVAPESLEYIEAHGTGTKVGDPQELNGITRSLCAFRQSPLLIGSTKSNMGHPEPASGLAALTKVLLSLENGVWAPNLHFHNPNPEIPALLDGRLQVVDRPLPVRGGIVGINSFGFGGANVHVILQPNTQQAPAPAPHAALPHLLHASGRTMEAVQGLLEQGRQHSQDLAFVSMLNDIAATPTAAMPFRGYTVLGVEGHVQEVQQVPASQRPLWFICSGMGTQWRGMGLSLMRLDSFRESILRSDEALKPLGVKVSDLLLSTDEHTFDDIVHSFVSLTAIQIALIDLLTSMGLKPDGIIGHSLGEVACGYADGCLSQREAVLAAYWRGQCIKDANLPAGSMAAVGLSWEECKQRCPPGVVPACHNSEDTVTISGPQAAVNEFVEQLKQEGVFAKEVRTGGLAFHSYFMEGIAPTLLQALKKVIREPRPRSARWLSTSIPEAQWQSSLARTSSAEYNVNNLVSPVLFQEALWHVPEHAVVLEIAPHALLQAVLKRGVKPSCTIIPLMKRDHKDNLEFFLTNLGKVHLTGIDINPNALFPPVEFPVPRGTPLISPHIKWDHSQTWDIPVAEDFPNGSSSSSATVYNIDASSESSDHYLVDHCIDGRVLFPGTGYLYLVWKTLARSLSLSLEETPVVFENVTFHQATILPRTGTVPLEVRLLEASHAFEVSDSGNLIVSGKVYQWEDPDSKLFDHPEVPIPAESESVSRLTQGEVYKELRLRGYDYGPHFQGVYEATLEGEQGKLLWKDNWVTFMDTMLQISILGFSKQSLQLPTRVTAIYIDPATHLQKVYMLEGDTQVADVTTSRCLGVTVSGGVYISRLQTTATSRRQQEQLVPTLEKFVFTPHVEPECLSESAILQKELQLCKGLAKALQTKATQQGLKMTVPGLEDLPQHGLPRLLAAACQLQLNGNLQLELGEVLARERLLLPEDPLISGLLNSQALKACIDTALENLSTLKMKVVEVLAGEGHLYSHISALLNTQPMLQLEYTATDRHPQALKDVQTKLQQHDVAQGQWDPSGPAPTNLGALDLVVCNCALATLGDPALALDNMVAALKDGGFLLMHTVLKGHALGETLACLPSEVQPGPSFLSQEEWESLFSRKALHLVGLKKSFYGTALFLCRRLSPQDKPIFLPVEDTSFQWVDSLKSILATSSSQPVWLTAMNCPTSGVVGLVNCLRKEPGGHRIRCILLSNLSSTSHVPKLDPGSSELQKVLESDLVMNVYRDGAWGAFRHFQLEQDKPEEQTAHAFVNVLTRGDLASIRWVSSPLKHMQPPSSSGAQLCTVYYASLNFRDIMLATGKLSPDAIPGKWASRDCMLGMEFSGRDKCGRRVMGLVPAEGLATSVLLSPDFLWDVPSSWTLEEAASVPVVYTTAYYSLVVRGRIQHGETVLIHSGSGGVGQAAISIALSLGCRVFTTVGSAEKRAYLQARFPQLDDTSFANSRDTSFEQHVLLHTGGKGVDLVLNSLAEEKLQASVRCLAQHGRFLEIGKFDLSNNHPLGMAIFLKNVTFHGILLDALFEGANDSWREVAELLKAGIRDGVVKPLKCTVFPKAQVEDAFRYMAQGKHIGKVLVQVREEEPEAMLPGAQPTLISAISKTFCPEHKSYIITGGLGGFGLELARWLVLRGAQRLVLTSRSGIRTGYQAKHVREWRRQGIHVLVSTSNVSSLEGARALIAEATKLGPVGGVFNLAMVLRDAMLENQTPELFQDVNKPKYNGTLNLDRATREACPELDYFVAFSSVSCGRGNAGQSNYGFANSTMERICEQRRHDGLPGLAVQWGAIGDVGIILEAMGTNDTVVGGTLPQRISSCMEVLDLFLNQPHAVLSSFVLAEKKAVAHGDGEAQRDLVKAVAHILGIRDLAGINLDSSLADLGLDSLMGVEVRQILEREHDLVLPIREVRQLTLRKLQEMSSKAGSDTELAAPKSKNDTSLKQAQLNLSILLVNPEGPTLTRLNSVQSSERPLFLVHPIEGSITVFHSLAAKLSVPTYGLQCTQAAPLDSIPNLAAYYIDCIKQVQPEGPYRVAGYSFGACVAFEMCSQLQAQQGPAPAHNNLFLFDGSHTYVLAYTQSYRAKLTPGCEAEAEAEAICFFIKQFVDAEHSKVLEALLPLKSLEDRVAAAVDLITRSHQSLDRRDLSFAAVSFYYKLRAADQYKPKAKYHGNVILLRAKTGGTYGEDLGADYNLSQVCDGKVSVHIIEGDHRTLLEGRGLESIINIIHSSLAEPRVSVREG
Structure (SMILES),EC50 [1] [nM],IC50 [3] [nM],IC50 [1] [nM],Papp [4] [×10⁻⁶ cm/s],half-life [5] [h],CC50 at 72 h [2] [nM]
Cc1ccc(-c2nc3cc(N4CCCC4)ncc3[nH]2)cc1C(=O)N1CCC(c2ccc(C#N)cc2)CC1,150,–,–,–,–,8600
Cc1cc(C)c(-c2nc3cc(N4CCOCC4)ncc3[nH]2)cc1C(=O)N1CCC(c2ccc(C#N)cc2)CC1,40,–,–,–,–,> 3000
Cc1cc(C(=O)N2CCC(c3ccc(C#N)cc3)CC2)cc(-c2nc3cc(N4CCCC4)ncc3[nH]2)c1,> 10000,–,–,–,–,> 10000
N#Cc1ccc(C2CCN(C(=O)c3cccc(-c4nc5cc(N6CCCC6)ncc5[nH]4)c3)CC2)cc1,550,2950,–,–,–,> 3000
Cc1cc(C)c(-c2nc3cc(S(C)(=O)=O)cnc3[nH]2)cc1C(=O)N1CCC(c2ccc(C#N)cc2)CC1,130,3850,–,–,–,> 20000
COCCN(C)c1cc2nc(-c3cc(C(=O)N4CCC(c5ccc(C#N)cc5)CC4)c(C)cc3C)[nH]c2cn1,84,316,–,–,–,> 20000
Cc1ccc(C(=O)N2CCC(c3ccc(C#N)cc3)CC2)cc1NC(=O)c1ccc(N2CCCC2)nc1,–,3970,–,–,–,–
Cc1cc(C)c(-c2nc3nc(N4CCC4)ccc3[nH]2)cc1C(=O)N1CCC(c2ccc(C#N)cc2)CC1,310,–,–,–,–,> 3000
Cc1c(C(=O)N2CCC(c3ccc(C#N)cc3)CC2)cccc1-c1nc2cc(N3CCCC3)ncc2[nH]1,> 10000,–,–,–,–,1900

# The next lines start with results.
EC50 [1] [nM],IC50 [3] [nM],IC50 [1] [nM],Papp [4] [×10⁻⁶ cm/s],half-life [5] [h],Structure (SMILES),CC50 at 72 h [2] [nM]
91,–,–,–,–,Cc1ccc(C(=O)N2CCC(c3ccc(C#N)cc3)CC2)cc1-c1nc2cc(N3CCC3)ncc2[nH]1,> 20000
–,> 50000,> 50000,–,–,Cc1ccc(C(=O)N2CCC(c3ccc(C#N)cc3)CC2)cc1-c1nc2ccncc2[nH]1,–
–,> 50000,> 50000,–,–,Cc1ccc(C(=O)N2CCC(c3ccc(C#N)cc3)CC2)cc1-c1nc2ccccc2[nH]1,–
175,–,–,8,> 10,Cc1ccc(C(=O)N2CCC(c3ccc(C#N)cc3)CC2)cc1-c1nc2cc(N3CCCC3)ncc2[nH]1,> 20000
830,–,–,–,–,Cc1ccc(C(=O)N2CCC(c3ccc(C#N)cc3)CC2)cc1-c1nc2cc(N3CCN(C)CC3)ncc2[nH]1,15000
